In ChEMBL document CHEMBL1201862, “PubChem BioAssay data set” (2004):
The source made the active and inactive calls.

Columns and labels:
Beta-galactosidase = Beta-galactosidase (Escherichia coli, UniProt Q8VNN2); assay: beta-galactosidase enzyme inhibitors and activators, dose response, artefact control for CCR6 antagonist project, biochemical, E. coli enzyme, set 3 (AID 504712); format: functional
HEK293 [1] = assay: cells; conditions: Homo sapiens
HEK293 [2] = assay: cells; conditions: Homo sapiens; remark: listed apart in the source
[3] = biological target: T1, Polyadenylate-binding protein 1 (Homo sapiens, UniProt P11940); assay: PABP1 MLLE–PAM2 interaction inhibitors, dose response, miRNA deadenylation inhibitor project, biochemical, fluorescence polarization, Cy5-PAM2 peptide, secondary (AID 602260); format: functional; conditions: read-out: IC50_Mean
T1 sequence (P11940 whole entry): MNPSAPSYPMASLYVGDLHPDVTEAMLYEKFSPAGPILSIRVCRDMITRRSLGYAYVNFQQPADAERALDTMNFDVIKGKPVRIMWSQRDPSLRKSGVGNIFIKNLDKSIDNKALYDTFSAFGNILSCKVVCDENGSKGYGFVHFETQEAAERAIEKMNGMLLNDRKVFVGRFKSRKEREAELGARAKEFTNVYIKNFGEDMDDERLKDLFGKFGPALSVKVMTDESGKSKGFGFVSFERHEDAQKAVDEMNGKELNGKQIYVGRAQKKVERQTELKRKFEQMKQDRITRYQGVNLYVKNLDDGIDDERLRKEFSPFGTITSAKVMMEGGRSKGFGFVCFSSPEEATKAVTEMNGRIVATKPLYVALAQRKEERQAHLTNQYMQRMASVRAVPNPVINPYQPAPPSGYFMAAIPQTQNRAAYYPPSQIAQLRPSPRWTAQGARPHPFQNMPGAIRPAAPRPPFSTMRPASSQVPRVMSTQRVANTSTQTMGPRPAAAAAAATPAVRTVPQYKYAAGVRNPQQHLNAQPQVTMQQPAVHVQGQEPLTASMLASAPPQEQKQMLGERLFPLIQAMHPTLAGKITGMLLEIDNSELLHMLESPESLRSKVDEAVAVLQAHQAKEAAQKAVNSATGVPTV

[4] = biological target: T1, Polyadenylate-binding protein 1; assay: PABP1 MLLE–PAM2 binding inhibitor potency, dose response, biochemical, fluorescence polarization, FITC-PAM2 peptide (AID 602259); format: functional; conditions: read-out: IC50_Mean
[5] = Fluorescence polarization-based biochemical high throughput dose response assay for activators of the Protein Kinase A-R2B (PKA-R2B) complex. [Related pubchem assays (depositor defined):AID504700, AID504704, AID504796, AID504797]
[6] = Fluorescence polarization-based biochemical high throughput dose response assay for activators of the Protein Kinase A-R1A (PKA-R1A) complex. [Related pubchem assays (depositor defined):AID504704, AID504707, AID504799, AID504800]
[7] = Intein inhibitors as potential Tuberculosis drugs, a cytotoxicity screen. [Related pubchem assays (depositor defined):AID2221, AID2223, AID434968, AID435010, AID449749, AID449750, AID489010]; format: functional
HEK293 [8] = assay: NOD1 signaling inhibitors, primary screen, cell-based, luminescence, uHTS (AID 1578); format: functional; conditions: Homo sapiens
[9] = biological target: Sphingosine 1-phosphate receptor 4 (Homo sapiens, UniProt O95977); assay: Fluorescence dose response cell-based high throughput screening assay for antagonists of the Sphingosine 1-Phosphate Receptor 4 (S1P4). [Related pubchem assays: 1524 (Confirmation in triplicates.), 1510 (Primary screen.)]; format: functional
Chain of Sphingosine 1-phosphate receptor 4 (O95977 whole entry): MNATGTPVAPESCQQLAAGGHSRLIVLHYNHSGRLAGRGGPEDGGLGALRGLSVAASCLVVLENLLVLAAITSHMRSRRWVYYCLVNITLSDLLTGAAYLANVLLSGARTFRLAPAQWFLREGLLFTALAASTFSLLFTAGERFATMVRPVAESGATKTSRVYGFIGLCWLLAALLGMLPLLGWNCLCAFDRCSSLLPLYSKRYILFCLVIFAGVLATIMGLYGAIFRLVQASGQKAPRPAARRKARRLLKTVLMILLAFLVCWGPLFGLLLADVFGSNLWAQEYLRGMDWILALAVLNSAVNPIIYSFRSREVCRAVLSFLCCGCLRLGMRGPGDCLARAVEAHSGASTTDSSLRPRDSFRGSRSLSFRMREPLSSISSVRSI

[10] = cytotoxicity toward DRD oncogenic fibroblasts, dose response, cell-based, non-viral oncogenic, luminescence (AID 1934); format: functional; conditions: Homo sapiens
BJ [11] = assay: cytotoxicity toward BJ-TERT fibroblasts, dose response, cell-based, RAS-independent, luminescence (AID 1933); format: functional; conditions: Homo sapiens
[12] = biological target: Sphingosine 1-phosphate receptor 1 (Homo sapiens, UniProt P21453); format: functional;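 note: Tango beta-arrestin reporter U2OS cells stimulated with S1P near its EC80; inhibitor potency meaning antagonism of receptor activation by the natural agonist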
Chain of Sphingosine 1-phosphate receptor 1 (P21453 whole entry): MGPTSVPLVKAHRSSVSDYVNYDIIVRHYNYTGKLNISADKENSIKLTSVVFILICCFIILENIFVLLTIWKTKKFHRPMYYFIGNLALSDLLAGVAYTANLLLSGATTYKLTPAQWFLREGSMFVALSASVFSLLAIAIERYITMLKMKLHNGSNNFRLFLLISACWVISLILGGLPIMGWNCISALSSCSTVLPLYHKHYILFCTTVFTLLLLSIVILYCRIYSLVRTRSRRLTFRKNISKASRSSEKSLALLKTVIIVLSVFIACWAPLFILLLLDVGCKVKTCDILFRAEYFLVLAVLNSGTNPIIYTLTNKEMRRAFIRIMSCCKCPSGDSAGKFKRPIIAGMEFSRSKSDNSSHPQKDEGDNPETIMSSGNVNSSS

HEK293 [13] = assay: cells; format: functional, cell-based; conditions: Homo sapiens
[14] = biological target: Nucleotide-binding oligomerization domain-containing protein 2 (Homo sapiens, UniProt Q9HC29); assay: NOD2 signaling inhibitors, cell-based, luminescence, uHTS, HEK293 (AID 1566); format: functional
Chain of Nucleotide-binding oligomerization domain-containing protein 2 (Q9HC29 whole entry, the tested form may be a part): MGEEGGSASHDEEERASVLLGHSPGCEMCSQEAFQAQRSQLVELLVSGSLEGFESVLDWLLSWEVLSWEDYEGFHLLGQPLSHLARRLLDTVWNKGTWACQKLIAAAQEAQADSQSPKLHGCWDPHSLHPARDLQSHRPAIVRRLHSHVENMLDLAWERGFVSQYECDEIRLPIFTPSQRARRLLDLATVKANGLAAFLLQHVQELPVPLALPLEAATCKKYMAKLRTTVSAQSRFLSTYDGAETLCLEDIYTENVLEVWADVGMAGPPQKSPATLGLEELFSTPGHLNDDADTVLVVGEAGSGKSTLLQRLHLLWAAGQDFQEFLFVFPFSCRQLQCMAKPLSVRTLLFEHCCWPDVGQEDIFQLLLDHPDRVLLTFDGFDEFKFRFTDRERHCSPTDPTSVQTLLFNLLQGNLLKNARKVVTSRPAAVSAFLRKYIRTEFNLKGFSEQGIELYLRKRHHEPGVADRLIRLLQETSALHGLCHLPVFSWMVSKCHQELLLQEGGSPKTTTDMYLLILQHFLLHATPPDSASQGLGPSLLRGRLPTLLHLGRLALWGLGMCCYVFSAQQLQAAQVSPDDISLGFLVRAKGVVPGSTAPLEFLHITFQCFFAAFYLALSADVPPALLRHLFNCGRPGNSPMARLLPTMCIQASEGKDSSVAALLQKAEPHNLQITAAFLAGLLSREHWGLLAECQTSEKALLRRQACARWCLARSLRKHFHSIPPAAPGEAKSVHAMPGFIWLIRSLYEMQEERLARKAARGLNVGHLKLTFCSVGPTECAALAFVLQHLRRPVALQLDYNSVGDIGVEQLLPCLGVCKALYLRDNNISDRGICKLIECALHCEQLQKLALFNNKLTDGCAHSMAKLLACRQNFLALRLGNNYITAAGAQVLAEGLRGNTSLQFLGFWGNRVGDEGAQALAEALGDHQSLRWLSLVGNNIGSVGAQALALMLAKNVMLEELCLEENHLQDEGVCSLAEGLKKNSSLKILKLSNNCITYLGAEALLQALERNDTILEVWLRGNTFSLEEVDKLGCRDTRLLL

HEK293 [15] = assay: cells; format: functional, cell-based; conditions: Homo sapiens; remark: listed apart in the source
BJ [16] = assay: cytotoxicity toward BJ-TERT-LT-ST fibroblasts, dose response, cell-based, RAS-independent, luminescence (AID 1935); format: functional; conditions: Homo sapiens;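 note: BJ fibroblasts immortalized with TERT plus LT and ST oncogenes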
HEK293 [17] = assay: cells; format: functional, cell-based; conditions: Homo sapiens; remark: listed apart in the source
BJ [18] = assay: cells; format: functional, cell-based; conditions: Homo sapiens
[19] = nonselective inhibitors of cellular cAMP signaling, dose response, counter-screen for MC4R biased antagonist project, cell-based, TR-FRET cAMP detection (AID 602305); format: functional;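 note: U2OS cells stimulated with forskolin near its EC80 as the cAMP inducer; potency is for inhibition of forskolin-stimulated cAMP signaling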
Protein RecA = biological target: T2, Protein RecA (Mycobacterium tuberculosis, UniProt P9WHJ3); assay: Fluorescence Cell-Free Homogeneous Dose Retest to Identify Inhibitors of RecA-Intein Splicing Activity. [Related pubchem assays (depositor defined):AID2097, AID2223, AID489010, AID492950]; format: functional
T2 sequence (P9WHJ3 whole entry): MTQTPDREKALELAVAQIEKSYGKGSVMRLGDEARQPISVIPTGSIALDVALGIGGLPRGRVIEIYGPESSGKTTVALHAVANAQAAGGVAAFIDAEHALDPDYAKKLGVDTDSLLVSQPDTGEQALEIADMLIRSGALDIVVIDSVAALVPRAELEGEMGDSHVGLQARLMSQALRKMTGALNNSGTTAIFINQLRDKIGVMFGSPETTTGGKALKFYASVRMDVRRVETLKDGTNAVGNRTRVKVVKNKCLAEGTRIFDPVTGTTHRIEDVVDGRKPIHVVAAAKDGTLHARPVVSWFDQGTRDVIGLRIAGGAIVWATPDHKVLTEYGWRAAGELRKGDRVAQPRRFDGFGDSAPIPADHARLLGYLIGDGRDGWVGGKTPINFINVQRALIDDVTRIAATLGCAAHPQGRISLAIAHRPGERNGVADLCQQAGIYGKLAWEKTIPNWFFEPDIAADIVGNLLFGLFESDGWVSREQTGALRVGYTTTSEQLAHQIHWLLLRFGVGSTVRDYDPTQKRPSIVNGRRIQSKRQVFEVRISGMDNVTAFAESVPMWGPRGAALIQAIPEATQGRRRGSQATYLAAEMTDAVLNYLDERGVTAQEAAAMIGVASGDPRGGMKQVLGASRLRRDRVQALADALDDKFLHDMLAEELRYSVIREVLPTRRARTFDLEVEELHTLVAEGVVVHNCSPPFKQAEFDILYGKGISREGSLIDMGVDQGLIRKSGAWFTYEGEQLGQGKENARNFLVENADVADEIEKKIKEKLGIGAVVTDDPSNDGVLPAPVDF

Melanocortin receptor 4 = Melanocortin receptor 4 (Homo sapiens, UniProt P32245); assay: MC4R antagonist potency on cAMP, dose response, cell-based, TR-FRET, biased antagonists (AID 602298); format: functional;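 note: antagonist potency against agonist-stimulated cAMP production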
Chain of Melanocortin receptor 4 (P32245 whole entry): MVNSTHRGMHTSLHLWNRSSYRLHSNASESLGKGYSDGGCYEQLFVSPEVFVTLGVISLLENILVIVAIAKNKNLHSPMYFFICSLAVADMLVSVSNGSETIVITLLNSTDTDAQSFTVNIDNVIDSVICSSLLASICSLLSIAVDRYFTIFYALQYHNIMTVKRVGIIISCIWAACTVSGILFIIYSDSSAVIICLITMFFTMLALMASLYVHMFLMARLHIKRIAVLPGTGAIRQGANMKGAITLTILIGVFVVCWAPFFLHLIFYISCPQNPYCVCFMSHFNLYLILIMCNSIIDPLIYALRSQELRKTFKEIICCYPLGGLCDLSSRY

[20] = biological target: T3, Replicative DNA helicase DnaB (Mycobacterium tuberculosis, UniProt P9WMR3); assay: DnaB intein splicing inhibitors, dose response, biochemical, cell-free fluorescence (AID 449749); format: functional
T3 sequence (P9WMR3 whole entry): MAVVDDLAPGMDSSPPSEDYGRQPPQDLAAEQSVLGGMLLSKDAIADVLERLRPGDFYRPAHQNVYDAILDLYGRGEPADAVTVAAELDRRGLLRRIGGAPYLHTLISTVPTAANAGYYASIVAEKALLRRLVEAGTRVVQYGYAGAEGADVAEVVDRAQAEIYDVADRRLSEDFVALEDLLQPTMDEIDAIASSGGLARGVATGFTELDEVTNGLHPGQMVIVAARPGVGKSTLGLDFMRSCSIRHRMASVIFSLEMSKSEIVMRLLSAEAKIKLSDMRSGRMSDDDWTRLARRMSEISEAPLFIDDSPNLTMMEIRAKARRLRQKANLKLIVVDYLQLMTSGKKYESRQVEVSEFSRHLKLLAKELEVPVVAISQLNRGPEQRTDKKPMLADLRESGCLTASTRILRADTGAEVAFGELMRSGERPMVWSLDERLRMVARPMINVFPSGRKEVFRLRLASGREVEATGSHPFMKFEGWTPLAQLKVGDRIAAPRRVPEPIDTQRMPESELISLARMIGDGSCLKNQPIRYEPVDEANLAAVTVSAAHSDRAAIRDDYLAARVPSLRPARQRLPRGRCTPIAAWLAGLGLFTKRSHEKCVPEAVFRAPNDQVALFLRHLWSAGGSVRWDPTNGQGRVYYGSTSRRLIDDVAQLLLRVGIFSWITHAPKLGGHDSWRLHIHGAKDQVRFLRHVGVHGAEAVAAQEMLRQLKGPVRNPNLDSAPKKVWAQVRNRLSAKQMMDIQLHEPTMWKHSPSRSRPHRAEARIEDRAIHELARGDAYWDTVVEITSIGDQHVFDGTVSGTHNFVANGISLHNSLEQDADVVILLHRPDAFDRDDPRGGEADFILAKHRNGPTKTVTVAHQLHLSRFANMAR

HEK293 [21] = assay: NOD2 signaling inhibitors in MDP-stimulated cells, cell-based, uHTS, luminescence (AID 2001); format: functional; conditions: Homo sapiens
[22] = biological target: T4, Carboxy-terminal domain RNA polymerase II polypeptide A small phosphatase 1 (Homo sapiens, UniProt Q9GZU7); assay: inhibitors of CTDSP1, concentration-response testing, biochemical assay, absorbance-based, actives from ultra-high-throughput screening (AID 540297); format: functional
T4 sequence (Q9GZU7 whole entry): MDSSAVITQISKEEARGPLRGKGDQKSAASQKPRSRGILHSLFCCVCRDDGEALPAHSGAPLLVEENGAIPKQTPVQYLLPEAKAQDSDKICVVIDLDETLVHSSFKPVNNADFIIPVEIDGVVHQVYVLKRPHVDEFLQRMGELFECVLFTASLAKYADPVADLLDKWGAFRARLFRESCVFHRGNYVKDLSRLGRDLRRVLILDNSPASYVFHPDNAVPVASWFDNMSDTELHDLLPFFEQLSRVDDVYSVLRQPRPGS

[23] = biological target: Beta-adrenergic receptor kinase 1 (Homo sapiens, UniProt P25098); assay: GRK2 inhibitors displacing RNA aptamer, dose response, biochemical, flow cytometry beads, FAM-aptamer, powder set 1 (AID 588720)
Chain of Beta-adrenergic receptor kinase 1 (P25098 whole entry): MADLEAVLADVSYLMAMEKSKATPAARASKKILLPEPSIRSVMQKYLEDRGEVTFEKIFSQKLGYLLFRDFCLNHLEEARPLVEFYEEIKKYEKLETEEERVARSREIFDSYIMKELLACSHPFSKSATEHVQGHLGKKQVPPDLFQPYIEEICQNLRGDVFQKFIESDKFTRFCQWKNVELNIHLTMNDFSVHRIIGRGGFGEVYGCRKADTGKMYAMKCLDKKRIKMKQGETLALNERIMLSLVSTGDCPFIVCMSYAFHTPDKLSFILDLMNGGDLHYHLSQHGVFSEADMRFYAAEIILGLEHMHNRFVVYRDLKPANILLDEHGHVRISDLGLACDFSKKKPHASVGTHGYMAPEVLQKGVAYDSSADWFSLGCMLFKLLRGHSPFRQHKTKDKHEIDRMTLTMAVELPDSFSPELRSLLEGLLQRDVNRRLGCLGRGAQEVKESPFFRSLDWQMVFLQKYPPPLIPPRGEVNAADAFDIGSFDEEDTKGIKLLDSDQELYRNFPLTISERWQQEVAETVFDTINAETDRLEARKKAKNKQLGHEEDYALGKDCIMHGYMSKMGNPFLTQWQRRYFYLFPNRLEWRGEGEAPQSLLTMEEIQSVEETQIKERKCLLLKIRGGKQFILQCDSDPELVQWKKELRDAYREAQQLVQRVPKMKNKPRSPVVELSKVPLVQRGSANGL
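Throughout, for CC50: cells exposed to compound for 72 hours before luminescence readout.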

Chain of Beta-galactosidase (Q8VNN2 whole entry): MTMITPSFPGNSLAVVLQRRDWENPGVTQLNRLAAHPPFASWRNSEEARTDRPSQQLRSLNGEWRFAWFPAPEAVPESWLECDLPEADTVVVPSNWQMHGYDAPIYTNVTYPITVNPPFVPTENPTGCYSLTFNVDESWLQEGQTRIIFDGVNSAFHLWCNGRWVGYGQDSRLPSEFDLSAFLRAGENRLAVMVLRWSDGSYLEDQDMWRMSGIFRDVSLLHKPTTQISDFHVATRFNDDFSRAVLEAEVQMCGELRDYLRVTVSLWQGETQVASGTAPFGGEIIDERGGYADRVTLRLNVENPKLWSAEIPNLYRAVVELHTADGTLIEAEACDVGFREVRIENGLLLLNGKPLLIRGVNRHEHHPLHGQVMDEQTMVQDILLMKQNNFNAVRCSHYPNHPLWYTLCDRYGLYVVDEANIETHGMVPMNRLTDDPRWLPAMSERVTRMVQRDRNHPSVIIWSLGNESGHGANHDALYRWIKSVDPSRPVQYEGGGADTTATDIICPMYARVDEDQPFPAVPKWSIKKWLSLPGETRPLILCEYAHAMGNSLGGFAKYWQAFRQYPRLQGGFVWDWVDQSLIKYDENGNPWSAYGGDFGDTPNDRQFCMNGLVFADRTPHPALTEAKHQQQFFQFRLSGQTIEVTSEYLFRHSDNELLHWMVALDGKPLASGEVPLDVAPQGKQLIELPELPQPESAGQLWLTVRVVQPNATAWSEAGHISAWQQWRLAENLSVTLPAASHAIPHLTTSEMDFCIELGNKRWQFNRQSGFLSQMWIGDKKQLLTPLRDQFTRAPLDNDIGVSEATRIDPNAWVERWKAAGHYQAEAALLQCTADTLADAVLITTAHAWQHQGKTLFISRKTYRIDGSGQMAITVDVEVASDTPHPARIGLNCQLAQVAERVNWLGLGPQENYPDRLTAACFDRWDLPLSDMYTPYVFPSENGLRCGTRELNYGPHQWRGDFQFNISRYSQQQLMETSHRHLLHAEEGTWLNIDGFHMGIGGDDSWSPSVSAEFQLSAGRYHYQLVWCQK

CN(C)CCCN1C(=O)c2cccc3c([N+](=O)[O-])ccc(c23)C1=O
IC50 (Beta-galactosidase): > 66.6 µM (inactive)
EC50 (HEK293 [1]): > 59.6 µM (inactive)
EC50 (HEK293 [2]): > 59.6 µM (inactive)
IC50 [3]: > 66 µM (inactive)
IC50 [4]: 60.1 µM (inactive)

CCCC(=O)Nc1ncnc2c1ncn2[C@@H]1O[C@@H]2COP(=O)(O)O[C@H]2[C@H]1OC(=O)CCC
EC50 [5]: 11.7 µM (inactive)
EC50 [6]: 12.3 µM (inactive)

CC(=O)n1cc(N(C(=O)CCl)c2ccc(C)cc2)c2ccccc21
CC50 [7]: 0.83 µM (active)
EC50 (HEK293 [8]): 16.2 µM (active)
IC50 [9]: 1.3 µM (active)
EC50 [10]: 1.2 µM (active)
EC50 (BJ [11]): 0.812 µM (inconclusive)
IC50 [12]: 14.5 µM (not active)
IC50 (HEK293 [13]): > 20 µM (inactive)
EC50 [14]: > 20 µM (inactive)
IC50 (HEK293 [15]): 11.5 µM (active)
EC50 (BJ [16]): 5.27 µM (inconclusive)
IC50 (HEK293 [17]): 3.22 µM (active)
EC50 (BJ [18]): 2.65 µM (inconclusive)
IC50 [19]: > 64.6 µM (inactive)
EC50 (Protein RecA): 0.248 µM (active)
IC50 (Melanocortin receptor 4): > 64.6 µM (inactive)
AC50 [20]: 2.53 µM (active)
IC50 (HEK293 [21]): 5.38 µM (active)

C#CCSc1nc2sc3c(c2c(=O)n1C)CCC3
IC50 [22]: 6.45 µM (active)
EC50 [23]: 2.72 µM (active)
